Consider 19 molecules from ChEMBL document CHEMBL5576158, “Recent insights of PROTAC developments in inflammation-mediated and autoimmune targets: a critical review” (RSC Med Chem, 2024).

The target in data set [1] is Protein cereblon/Macrophage migration inhibitory factor (Homo sapiens) (UniProt P14174+Q96SW2). Briefly: PROTAC activity at E3 ubiquitin ligase/MIF in human A549 cells assessed as induction of MIF degradation by Western blot analysis. It is filed as cell-based. For orientation: Immunoblotting shows a protein as a band on a membrane.
In data set [2] the target is T1, von Hippel-Lindau disease tumor suppressor/Interleukin-1 receptor-associated kinase 3 (Homo sapiens, UniProt Q9Y616+P40337). Briefly: PROTAC activity at IRAK3/VHL E3 ligase in human THP-1 cells assessed as induction of IRAK3 degradation by Immuno-blot analysis. It is filed as cell-based.
For data set [3], the target named is T1, von Hippel-Lindau disease tumor suppressor/Interleukin-1 receptor-associated kinase 3. Briefly: PROTAC activity at IRAK3/VHL E3 ligase in human THP-1 cells assessed as induction of IRAK3 degradation by measuring maximal efficacy incubated for 24 hrs by Western blot analysis. It is filed as cell-based.
The target in data set [4] is Protein cereblon/Protein deacetylase HDAC6 (Homo sapiens, UniProt Q9UBN7+Q96SW2). Description: PROTAC activity at CRBN/HDAC6 in human MM1.S cells assessed as HDAC6 degradation incubated for 18 hrs by immunoblot analysis. It is filed as cell-based.
Data set [5] concerns the target von Hippel-Lindau disease tumor suppressor/Tyrosine-protein kinase BTK (Homo sapiens, UniProt Q06187+P40337, C481S). Description: PROTAC activity at VHL/BTK C481S mutant in human THP-1 cells assessed as induction of BTK degradation incubated for 24 hrs by immunoblotting analysis. In kind it is cell-based.
Data set [6] has as its target Protein cereblon/Histone deacetylase 8 (Homo sapiens, UniProt Q9BY41+Q96SW2). Description: PROTAC activity at CRBN/HDAC8 in human Jurkat T cells assessed as induction of degradation of HDAC8 by Western blot analysis. It is filed as cell-based.
In data set [7] the target is T2, Macrophage migration inhibitory factor (Homo sapiens, UniProt P14174).
T2 sequence (P14174 whole entry): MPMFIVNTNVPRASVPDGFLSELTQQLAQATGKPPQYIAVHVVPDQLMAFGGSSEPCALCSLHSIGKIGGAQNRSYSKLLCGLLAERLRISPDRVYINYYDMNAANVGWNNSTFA
Description: Binding affinity to MIF in human A549 cells assessed as inhibition constant. It is filed as cell-based.

A short description of data set [8]: Cytotoxicity against mouse RAW264.7 cells assessed as reduction in cell growth. It is filed as toxicity, cell-based.
Data set [9] addresses Receptor-interacting serine/threonine-protein kinase 2 (Homo sapiens) (UniProt O43353). Briefly: PROTAC activity at IAP/RIPK2 in human THP-1 cells assessed as […] by Western blot analysis.
Data set [10] has as its target Protein cereblon/Interleukin-1 receptor-associated kinase 4 (Homo sapiens, UniProt Q9NWZ3+Q96SW2). Briefly: PROTAC activity at CRBN/IRAK4 in human THP-1 cells assessed as induction of IRAK4 degradation by Immuno-blotting analysis. In kind it is cell-based.
The target in data set [11] is von Hippel-Lindau disease tumor suppressor/Receptor-interacting serine/threonine-protein kinase 2 (Homo sapiens) (UniProt O43353+P40337). Description: PROTAC activity at VHL/RIPK2 in human THP-1 cells assessed as RIPK2 degradation by measuring maximal efficacy at 10 nM measured after 16 hrs by Western blot analysis relative to control. It is filed as cell-based.
The target in data set [12] is T3, Tyrosine-protein kinase ITK/TSK (Homo sapiens, UniProt Q08881).
T3 sequence (Q08881 whole entry): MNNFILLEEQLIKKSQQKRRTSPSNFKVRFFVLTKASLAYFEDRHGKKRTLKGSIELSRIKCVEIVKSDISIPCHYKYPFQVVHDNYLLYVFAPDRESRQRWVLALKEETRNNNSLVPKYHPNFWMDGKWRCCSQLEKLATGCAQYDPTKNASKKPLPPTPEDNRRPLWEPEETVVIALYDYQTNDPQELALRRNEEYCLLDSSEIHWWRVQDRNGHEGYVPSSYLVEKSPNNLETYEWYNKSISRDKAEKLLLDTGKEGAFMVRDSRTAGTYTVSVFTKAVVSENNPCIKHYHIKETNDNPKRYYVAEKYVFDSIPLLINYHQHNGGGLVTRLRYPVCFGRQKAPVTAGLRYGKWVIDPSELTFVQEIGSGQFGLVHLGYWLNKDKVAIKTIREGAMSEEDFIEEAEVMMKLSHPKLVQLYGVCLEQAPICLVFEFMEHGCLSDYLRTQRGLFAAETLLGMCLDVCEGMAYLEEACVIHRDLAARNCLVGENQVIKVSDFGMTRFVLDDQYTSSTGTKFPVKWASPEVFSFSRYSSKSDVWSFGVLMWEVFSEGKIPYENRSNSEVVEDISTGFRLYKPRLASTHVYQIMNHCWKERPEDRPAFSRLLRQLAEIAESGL
Description: Inhibition of ITK (unknown origin).

Data set [13] concerns the target T4, Tyrosine-protein kinase ITK/TSK (Homo sapiens) (UniProt Q08881).
T4 sequence (whole entry): T3 sequence (Q08881 whole entry)
Briefly: Degradation of ITK (unknown origin) at 1 uM relative to control.

Data set [14] deals with Protein cereblon/Histone acetyltransferase KAT2B (Homo sapiens) (UniProt Q92831+Q96SW2). Description: PROTAC activity at PCAF/CRBN in human THP-1 cells assessed as induction of PCAF degradation by measuring maximal efficacy at 30 nM measured for 10 mins by Western blot analysis relative to control. In kind it is cell-based.
The target in data set [15] is Protein cereblon/Histone acetyltransferase KAT2A (Homo sapiens) (UniProt Q92830+Q96SW2). Briefly: PROTAC activity at GCN5/CRBN in human THP-1 cells assessed as induction of […] degradation by measuring maximal efficacy at 30 nM measured for 10 mins by Western blot analysis relative to control. In kind it is cell-based.
The target in data set [16] is Protein cereblon/Indoleamine 2,3-dioxygenase 1 (Homo sapiens) (UniProt P14902+Q96SW2). Briefly: PROTAC activity against CRBN/IDO1 in human HeLa cells assessed as induction of IDO1 degradation at 2 uM incubated for 24 hrs by Western blot analysis relative to control. In kind it is cell-based.

A value given as a limit tells only on which side of the number the result lay.

Chain of Protein cereblon/Macrophage migration inhibitory factor (Homo sapiens) (Q96SW2 whole entry partner, one chain of several): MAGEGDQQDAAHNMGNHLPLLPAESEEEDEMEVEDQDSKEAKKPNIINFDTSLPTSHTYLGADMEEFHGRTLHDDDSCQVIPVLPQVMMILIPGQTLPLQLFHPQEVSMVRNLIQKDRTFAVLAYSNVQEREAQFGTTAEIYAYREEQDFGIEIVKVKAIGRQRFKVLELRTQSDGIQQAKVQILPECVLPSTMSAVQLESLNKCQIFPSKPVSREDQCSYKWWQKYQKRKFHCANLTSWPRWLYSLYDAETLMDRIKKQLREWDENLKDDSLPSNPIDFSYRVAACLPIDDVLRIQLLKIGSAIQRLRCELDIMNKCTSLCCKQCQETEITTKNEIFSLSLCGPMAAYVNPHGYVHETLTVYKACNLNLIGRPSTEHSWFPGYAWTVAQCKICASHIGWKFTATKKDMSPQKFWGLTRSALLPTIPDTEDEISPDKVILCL
Chain of Receptor-interacting serine/threonine-protein kinase 2 (Homo sapiens) (O43353 whole entry, looked up): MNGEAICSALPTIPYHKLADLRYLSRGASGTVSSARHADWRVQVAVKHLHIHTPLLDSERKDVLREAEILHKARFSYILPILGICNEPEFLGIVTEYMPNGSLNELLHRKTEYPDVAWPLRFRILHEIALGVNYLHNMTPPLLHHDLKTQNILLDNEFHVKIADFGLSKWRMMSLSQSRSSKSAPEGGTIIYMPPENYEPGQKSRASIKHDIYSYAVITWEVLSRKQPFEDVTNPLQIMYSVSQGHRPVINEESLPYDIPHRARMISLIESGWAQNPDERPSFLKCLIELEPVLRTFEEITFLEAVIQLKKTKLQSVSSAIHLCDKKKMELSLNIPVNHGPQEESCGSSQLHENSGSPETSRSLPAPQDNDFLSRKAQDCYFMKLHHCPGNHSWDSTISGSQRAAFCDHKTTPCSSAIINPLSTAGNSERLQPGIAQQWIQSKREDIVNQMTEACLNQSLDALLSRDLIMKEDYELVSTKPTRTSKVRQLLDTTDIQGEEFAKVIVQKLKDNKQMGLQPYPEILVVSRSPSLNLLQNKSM
Chain of Protein cereblon/Interleukin-1 receptor-associated kinase 4 (Q9NWZ3 whole entry): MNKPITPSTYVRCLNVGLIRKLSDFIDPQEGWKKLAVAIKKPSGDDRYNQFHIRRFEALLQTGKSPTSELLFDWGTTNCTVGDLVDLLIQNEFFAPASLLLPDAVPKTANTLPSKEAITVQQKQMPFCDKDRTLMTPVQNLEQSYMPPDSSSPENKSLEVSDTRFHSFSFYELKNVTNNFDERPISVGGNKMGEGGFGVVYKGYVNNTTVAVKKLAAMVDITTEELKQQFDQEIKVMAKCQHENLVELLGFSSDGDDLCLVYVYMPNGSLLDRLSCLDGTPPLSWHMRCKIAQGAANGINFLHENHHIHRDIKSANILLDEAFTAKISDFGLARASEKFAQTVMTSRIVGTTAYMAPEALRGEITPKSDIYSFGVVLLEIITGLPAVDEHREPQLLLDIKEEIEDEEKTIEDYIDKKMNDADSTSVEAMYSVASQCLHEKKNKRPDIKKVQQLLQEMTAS
Chain of Protein cereblon/Interleukin-1 receptor-associated kinase 4 (Q96SW2 whole entry): as the sequence (Q96SW2 whole entry partner, one chain of several) above
Chain of von Hippel-Lindau disease tumor suppressor/Receptor-interacting serine/threonine-protein kinase 2 (Homo sapiens) (O43353 whole entry, looked up): as the sequence (O43353 whole entry, looked up) above
Chain of von Hippel-Lindau disease tumor suppressor/Receptor-interacting serine/threonine-protein kinase 2 (Homo sapiens) (P40337 whole entry, looked up): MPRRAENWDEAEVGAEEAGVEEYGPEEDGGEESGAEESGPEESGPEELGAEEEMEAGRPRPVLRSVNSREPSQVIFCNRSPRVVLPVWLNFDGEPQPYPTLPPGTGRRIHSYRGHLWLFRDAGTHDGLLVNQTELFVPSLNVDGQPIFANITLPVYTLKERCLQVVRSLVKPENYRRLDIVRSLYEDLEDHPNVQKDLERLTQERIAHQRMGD
Chain of Protein cereblon/Indoleamine 2,3-dioxygenase 1 (Homo sapiens) (P14902 whole entry, looked up): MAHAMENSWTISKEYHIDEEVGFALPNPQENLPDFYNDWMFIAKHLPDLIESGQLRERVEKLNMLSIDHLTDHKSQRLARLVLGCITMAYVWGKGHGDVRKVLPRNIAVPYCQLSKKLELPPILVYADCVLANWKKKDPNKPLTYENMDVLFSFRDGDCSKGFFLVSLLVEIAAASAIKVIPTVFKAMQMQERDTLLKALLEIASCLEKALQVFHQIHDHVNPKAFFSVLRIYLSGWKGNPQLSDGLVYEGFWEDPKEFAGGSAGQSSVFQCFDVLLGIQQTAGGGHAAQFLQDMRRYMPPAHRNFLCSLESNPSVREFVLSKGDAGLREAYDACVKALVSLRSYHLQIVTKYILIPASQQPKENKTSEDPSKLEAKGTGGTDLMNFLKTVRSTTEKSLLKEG
Chain of Protein cereblon/Indoleamine 2,3-dioxygenase 1 (Homo sapiens) (Q96SW2 whole entry, looked up): as the sequence (Q96SW2 whole entry partner, one chain of several) above
Chain of Protein cereblon/Histone acetyltransferase KAT2B (Homo sapiens) (Q92831 whole entry, looked up): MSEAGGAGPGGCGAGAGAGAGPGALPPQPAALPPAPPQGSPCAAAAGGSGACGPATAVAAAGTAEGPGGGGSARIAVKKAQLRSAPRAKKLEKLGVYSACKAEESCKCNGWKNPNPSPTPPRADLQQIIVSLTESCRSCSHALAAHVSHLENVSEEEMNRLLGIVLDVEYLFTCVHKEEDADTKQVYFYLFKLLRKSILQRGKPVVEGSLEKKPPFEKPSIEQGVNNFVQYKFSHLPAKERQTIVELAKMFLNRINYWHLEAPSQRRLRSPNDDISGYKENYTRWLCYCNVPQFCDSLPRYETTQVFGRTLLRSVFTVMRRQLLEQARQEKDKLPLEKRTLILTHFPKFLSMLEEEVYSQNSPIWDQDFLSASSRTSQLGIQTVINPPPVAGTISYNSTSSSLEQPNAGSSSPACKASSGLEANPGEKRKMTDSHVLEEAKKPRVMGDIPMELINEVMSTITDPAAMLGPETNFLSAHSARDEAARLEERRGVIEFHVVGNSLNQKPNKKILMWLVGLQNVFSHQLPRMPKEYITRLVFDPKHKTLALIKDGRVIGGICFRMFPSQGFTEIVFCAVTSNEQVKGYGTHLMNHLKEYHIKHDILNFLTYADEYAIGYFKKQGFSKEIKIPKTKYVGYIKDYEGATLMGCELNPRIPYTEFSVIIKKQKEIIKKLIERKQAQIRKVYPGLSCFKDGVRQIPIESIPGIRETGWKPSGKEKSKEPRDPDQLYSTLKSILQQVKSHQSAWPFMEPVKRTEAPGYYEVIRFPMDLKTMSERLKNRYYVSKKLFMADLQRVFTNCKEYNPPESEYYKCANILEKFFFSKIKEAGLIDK
Chain of Protein cereblon/Histone acetyltransferase KAT2B (Homo sapiens) (Q96SW2 whole entry, looked up): as the sequence (Q96SW2 whole entry partner, one chain of several) above

For orientation: Emax means the greatest response seen or fitted, relative to the assay's reference. As to `O=C1CCC(N2C(=O)c3cccc(NCCCCCCCC(=O)Nc4ccc(N5Cc6ccc(O)cc6OC5=O)cc4)c3C2=O)C(=O)N1` (centres undefined), in data set [1], the maximal effect (Emax) came out at 91%. The DC50 is the concentration at which degradation of the target reaches its halfway point. Turning to `Cc1ncsc1-c1ccc([C@H](C)NC(=O)[C@@H]2C[C@@H](O)CN2C(=O)[C@@H](NC(=O)[C@H]2CC[C@H](C(=O)N3CCC(n4cc(-c5cnc(N)c(O[C@@H](C)c6c(Cl)ccc(F)c6Cl)c5)cn4)CC3)CC2)C(C)(C)C)cc1`, the half-maximal degradation concentration (DC50) in data set [2] stood at 94 nM. In addition, the Emax in data set [3] came to 95%. As to `CCCCN(Cc1ccc(C(=O)O)cc1)C(=O)Nc1ccc(OCCCCCCCn2cc(CNCc3ccc(-c4cccc5c4CN(C4CCC(=O)NC4=O)C5=O)cc3)nn2)cc1` (centres undefined), in data set [4], the 50% degradation concentration (DC50) is 1.9 nM.

For the molecule `CN[C@@H](C)C(=O)N[C@H](C(=O)N1C[C@@H](NC(=O)OCCOCCOCCOCCN2CCN(CCCC(=O)N3CCC[C@@H](n4nc(-c5ccc(Oc6ccccc6)cc5)c5c(N)ncnc54)C3)CC2)C[C@H]1C(=O)N[C@@H]1CCCc2ccccc21)C1CCCCC1`, the DC50 in data set [5] amounted to 200 nM. `O=C1CCC(N2C(=O)c3ccc(NCCCCCCCCCCCNC(=O)c4cccc(SCc5cn(-c6cccc(C(=O)NO)c6)nn5)c4)cc3C2=O)C(=O)N1` (centres undefined): the DC50 in data set [6] was found to be 702 nM.

Consider `O=C1CCC(N2C(=O)c3cccc(NCCCCCCC(=O)Nc4ccc(N5Cc6ccc(O)cc6OC5=O)cc4)c3C2=O)C(=O)N1` (centres undefined), for which the Emax in data set [1] worked out at 55%.

As a reminder, the Ki is a dissociation constant, usually derived from enzyme kinetics or from competition with a known ligand. On to `O=C1CCC(N2C(=O)c3cccc(NCCCC(=O)Nc4ccc(N5Cc6ccc(O)cc6OC5=O)cc4)c3C2=O)C(=O)N1` (centres undefined), for which the inhibition constant Ki in data set [7] is 55 nM. In general, IC50 refers to the concentration that inhibits the measured activity by half. `C=C1CC[C@H]2[C@@H](/C=C(\C)C(=O)[C@@]3(O)C[C@H](C)[C@H](O)[C@@H]3[C@H]1OCc1cn(CCOCCOCCOCCNc3cccc4c3C(=O)N(C3CCC(=O)NC3=O)C4=O)nn1)C2(C)C` (some centres undefined): in [8], the IC50 stood at 8340 nM. With `CN[C@H](C)C(=O)N[C@@H](C(=O)N1Cc2cc(OCCOCCOCCOCCOc3cc4nccc(Nc5ccc6scnc6c5)c4cc3S(=O)(=O)C(C)(C)C)ccc2C[C@H]1C(=O)N[C@H]1CCCc2ccccc21)C(C)(C)C`, the pDC50 in [9] is reported as 9.4. For `CC(C)Nc1cc(C(=O)N[C@H]2CC[C@@H](C(=O)NCCOCCNC(=O)COc3cccc4c3C(=O)N(C3CCC(=O)NC3=O)C4=O)CC2)nc(-n2ccc3cc(C#N)cnc32)c1` (some centres undefined), the DC50 in data set [10] was 405 nM. Regarding `CN[C@@H](C)C(=O)N[C@H](C(=O)N1CCC[C@H]1c1nc(C(=O)c2ccc(F)cc2)cs1)C1CCN(C(=O)c2cnc(N3CCN(CCOc4cc5ncnc(Nc6n[nH]c(C)c6C)c5cc4S(=O)(=O)C(C)(C)C)CC3)nc2)CC1`, the pDC50 in data set [9] was 7.9. Regarding `O=C1CCC(N2C(=O)c3cccc(NCCCCC(=O)Nc4ccc(N5Cc6ccc(O)cc6OC5=O)cc4)c3C2=O)C(=O)N1` (centres undefined), in data set [1], the maximal response (Emax) stood at 21%. In addition, the Ki in data set [7] amounted to 86 nM.

In the case of `CC(C)Nc1cc(C(=O)N[C@H]2CC[C@@H](C(=O)NCCCCCNC(=O)COc3cccc4c3C(=O)N(C3CCC(=O)NC3=O)C4=O)CC2)nc(-n2ccc3cc(C#N)cnc32)c1` (some centres undefined), the 50% degradation concentration (DC50) in data set [10] is 190 nM. Turning to `CN1C(=O)CCC(N2C(=O)c3cccc(NCCCCCCCC(=O)Nc4ccc(N5Cc6ccc(O)cc6OC5=O)cc4)c3C2=O)C1=O` (centres undefined), in data set [1], the Emax turned out to be 55%. For the molecule `Cc1ncsc1-c1ccc(CNC(=O)[C@@H]2C[C@@H](O)CN2C(=O)[C@@H](NC(=O)COCCOCCOCCOCCOc2cc3nccc(Nc4ccc5scnc5c4)c3cc2S(=O)(=O)C(C)(C)C)C(C)(C)C)cc1`, the Emax in [11] came out at 95%. On to `O=C1CCC(N2C(=O)c3cccc(NCCCCCCCCCC(=O)Nc4ccc(N5Cc6ccc(O)cc6OC5=O)cc4)c3C2=O)C(=O)N1` (centres undefined), for which the Emax in data set [1] was 64%. For `COc1cc(C)c(Sc2cnc(NC(=O)c3ccc(N4CCN(CCCCCCNC(=O)COc5cccc6c5C(=O)N(C5CCC(=O)NC5=O)C6=O)CC4)cc3)s2)cc1C(=O)N1CCN(C(C)=O)CC1` (centres undefined), the midpoint of inhibition in data set [12], the IC50, lay at 17.6 nM. The molecule further came in with a degradation in data set [13] of more than 90%. Further, the pDC50 in [9] was 9.4. For the molecule `CN1C[C@H](Nc2cnn(C)c(=O)c2Br)C[C@H](c2ccc(C(=O)N(C)CCCN(C)c3ccc(CCCOc4cccc5c4C(=O)N(C4CCC(=O)NC4=O)C5=O)cc3)cc2)C1` (some centres undefined), the Emax in data set [14] and in data set [15] was 80% throughout. In the case of `O=C1CCC(N2C(=O)c3cccc(NCCOCCOCCOCCOCCOCCOCCOCCNCCNc4nonc4/C(=N/O)Nc4ccc(F)c(Br)c4)c3C2=O)C(=O)N1` (centres undefined), in data set [16], the maximal response (Emax) turned out to be 93%.
